Test results reported in PubChem BioAssay AID248 (DTP/NCI, 2004).
Inconclusive results and toxic doses are left out. No stated cut-off is given here; in the data, active means T/C of 150% or more; inactive means T/C below 125%.

System: L1210 leukemia ip in BDF1 mice, survival T/C
Experiment: NCI In Vivo Anticancer Drug Screen. Data for tumor model L1210 Leukemia (intraperitoneal) in B6D2F1 (BDF1) mice
Details: endpoint: mean survival time, schedule: Q04DX002 (ip), vehicle: saline with Tween-80, higher = longer survival
How it was run: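 Transplanted-tumor mice were given test agent; controls received vehicle only. Survival readings from the two groups were divided (treated over control).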

Measured: T/C

COC1OC(COC(c2ccccc2)(c2ccccc2)c2ccccc2)C(OS(=O)(=O)c2ccc(C)cc2)C(OC(=O)c2ccccc2)C1OC(=O)c1ccccc1 (stereo not drawn)
inactive: dose: 100.0 mg/kg/injection 114 % of control | dose: 200.0 mg/kg/injection 97 % of control | dose: 400.0 mg/kg/injection 90 % of control
